Where “and” joins values, the source holds several entries; their conditions need not be identical. Identical values can stand only once.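 Cells were grown in 96-well plates and exposed to each compound for 48 hours at five concentrations; endpoints were interpolated linearly between bracketing concentrations, or set to the highest concentration if not reached. At the GI50, growth is halved. TGI denotes the concentration required for complete inhibition of growth.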
Legend:
Test in all cases: NCI anticancer screen, dose series, 48 h
SN12C renal = tested on: SN12C renal
HS 578T breast = tested on: HS 578T breast
SK-MEL-5 melanoma = tested on: SK-MEL-5 melanoma
NCI-H460 lung = tested on: NCI-H460 lung
COLO 205 colon = tested on: COLO 205 colon
RPMI-8226 leukemia = tested on: RPMI-8226 leukemia
SF-295 CNS = tested on: SF-295 CNS
MCF7 breast = tested on: MCF7 breast
MALME-3M melanoma = tested on: MALME-3M melanoma
NCI/ADR-RES ovarian = tested on: NCI/ADR-RES ovarian

Row | Compound | GI50 (SN12C renal) | TGI (SN12C renal) | GI50 (HS 578T breast) | TGI (HS 578T breast) | GI50 (SK-MEL-5 melanoma) | TGI (SK-MEL-5 melanoma) | GI50 (NCI-H460 lung) | TGI (NCI-H460 lung) | GI50 (COLO 205 colon) | TGI (COLO 205 colon) | GI50 (RPMI-8226 leukemia) | TGI (RPMI-8226 leukemia) | GI50 (SF-295 CNS) | TGI (SF-295 CNS) | GI50 (MCF7 breast) | TGI (MCF7 breast) | GI50 (MALME-3M melanoma) | TGI (MALME-3M melanoma) | GI50 (NCI/ADR-RES ovarian) | TGI (NCI/ADR-RES ovarian)
1 | COC(=O)[C@@H](NC(=O)NC(=O)NC(=O)CI)C(C)C | 5.46 µM | 25.7 µM | 26.4 µM | 74.6 µM | 17.4 µM | 31.6 µM | 18.9 µM | 38.2 µM | 1.97 µM | 4.01 µM | 4.83 µM | 26.1 µM | 17.9 µM | 40.6 µM | 3.03 µM | 12.7 µM | 1.63 µM | 3.64 µM | 25.4 µM | 73 µM
2 | CC1=NN(C(=O)c2ccccc2O)C(=O)/C1=C/c1ccc([N+](=O)[O-])cc1 | 2.06 µM | > 26.5 µM | – | > 100 µM | 2.21 µM | 51.5 µM | 0.414 µM | > 100 µM | 7.43 µM | > 88 µM | 0.784 µM | > 100 µM | 0.379 µM | > 100 µM | 0.392 µM | > 100 µM | 0.895 µM | > 100 µM | 0.449 µM | –
3 | Cc1ccc(C(=O)N(CCCN)[C@@H](c2nc3cc(Cl)ccc3c(=O)n2Cc2ccccc2)C(C)C)cc1 | < 0.01 µM | 2.28 µM and 1.83 µM | < 0.01 µM | – | < 0.01 µM | 1.35 µM and 1.46 µM | < 0.01 µM | 1.09 µM and 1.25 µM | < 0.01 µM | 1.1 µM | < 0.01 µM | 1.72 µM | < 0.01 µM | – | < 0.01 µM | 1.59 µM and 1.33 µM | 0.0303 µM | 2.39 µM | 0.0481 µM and 0.0406 µM | 0.307 µM and 0.481 µM
4 | Nc1ccn(C2OC(CO)C(O)C2F)c(=O)n1 (stereo not given) | > 5000 µM | > 5000 µM | > 5000 µM | > 5000 µM | > 5000 µM | > 5000 µM | 810 µM and 773 µM | > 5000 µM | 688 µM | > 5000 µM | > 5000 µM | > 5000 µM | > 5000 µM | > 5000 µM | 2.98 µM | > 5000 µM | > 5000 µM | > 5000 µM | – | > 5000 µM
5 | CN(C)CCCOc1ccccc1NC1=C(Cl)C(=O)C(Nc2ccccc2OCCCN(C)C)=C(Cl)C1=O | 0.165 µM | 0.319 µM | 1.83 µM | 5.46 µM | 1.35 µM | 2.65 µM | 1.32 µM | 2.85 µM | 0.194 µM | 0.399 µM | 2.01 µM | 5.07 µM | 1.53 µM | 2.9 µM | 0.175 µM | 0.398 µM | 0.923 µM | 2.43 µM | 3.29 µM | 12.7 µM
6 | COc1ccc(C#Cc2ccccc2C#CCCCCO)cc1 | 11 µM | 23.7 µM | 28.3 µM | 65.1 µM | 25.2 µM | 57.6 µM | 19.4 µM | 39.9 µM | 17.6 µM | 33.4 µM | 27.3 µM | 72.7 µM | 18.7 µM | 34.6 µM | 27.2 µM | 59.1 µM | 23 µM | 45.4 µM | 24.4 µM | 48.4 µM

Source: PubChem BioAssay (NCI)
